Laboratory results reported in ChEMBL document CHEMBL3045261, “Study on the quantitative structuretoxicity relationships of benzoic acid derivatives in rats via oral LD50” (Med Chem Res, 2009).

System: Rattus norvegicus
Assay: Toxicity in po dosed Rattus norvegicus (rat)
Details: in vivo

Row | Structure (SMILES) | pLD50
1 | O=C(OCc1ccccc1)c1ccccc1O [BENZYL SALICYLATE] | 7.71
2 | CCOC(=O)c1ccc([N+](=O)[O-])cc1 [4-NITROBENZOIC ACID ETHYL ESTER] | 7.89
3 | O=C(O)c1ccccc1O [SALICYLIC ACID] | 6.791
4 | Nc1ccc(O)c(C(=O)O)c1 [MESALAMINE] | 7.94
5 | NC(=O)c1ccccc1O [SALICYLAMIDE] | 6.89
6 | COc1c(Cl)ccc(Cl)c1C(=O)O [3,6 DICHLOROMETHOXYBENZOIC ACID] | 6.95
7 | COC(=O)c1ccccc1O [METHYL SALICYLATE] | 6.79
8 | O=C(O)c1cc([N+](=O)[O-])cc([N+](=O)[O-])c1O [3,5-DINITROSALICYLIC ACID] | 6.76
9 | Nc1cc(Cl)cc(C(=O)O)c1Cl [CHLORAMBEN] | 8.16
10 | CNc1ccccc1C(=O)OC [2-METHYLAMINOBENZOIC ACID METHYL ESTER] | 8.13
11 | O=C(O)c1c(Cl)ccc(Cl)c1O | 7.35
12 | CC(=O)Oc1ccccc1C(=O)O [ASPIRIN] | 5.3
13 | O=C(Cl)c1ccccc1 [BENZOYL CHLORIDE] | 7.55
14 | COC(=O)c1cccc(C)c1O | 8.25
15 | O=C(Oc1ccccc1)c1ccccc1O [PHENYL SALICYLATE] | 8.01
16 | COC(=O)c1ccc(OC)cc1 [METHYL 4-METHOXYBENZOATE] | 8.52
17 | C=COC(=O)c1ccccc1 [BENZOIC ACID VINYL ESTER] | 8.09
18 | COC(=O)c1ccccc1OC(N)=O [2-(AMINOCARBONYL)OXYBENZOIC ACID METHYL ESTER] | 7.82
19 | O=C(O)c1ccccc1C(=O)c1ccccc1 [2-BENZOYLBENZOIC ACID] | 8.43
20 | Cc1ccc(OC(=O)c2ccccc2O)cc1 | 7.17
21 | Nc1ccccc1C(=O)O [ANTHRANILIC ACID] | 8.6
22 | O=C(O)c1ccc(O)cc1 [PARABEN] | 9.21
23 | CC(C)CCOC(=O)c1ccccc1O | 8.1
24 | COC(=O)c1cc([N+](=O)[O-])ccc1Cl | 8.59
25 | O=C(O)c1ccccc1OP(=O)(O)O [FOSFOSAL] | 7.01
26 | CC(C)=CCOC(=O)c1ccccc1 [BENZOIC ACID 3-METHYL-2-BUTENYL ESTER] | 8.46
27 | O=C(O)c1ccc(Cl)c([N+](=O)[O-])c1 [4-CHLORO-3-NITROBENZOIC ACID] | 8.06

Row | Structure (SMILES) | pLD50
28 | O=C(O)c1cc(Cl)ccc1O [5-CHLOROSALICYLIC ACID] | 5.52
29 | Cc1ccc(OC(=O)c2ccccc2)cc1 [BENZOIC ACID 4-METHYLPHENYL ESTER] | 7.88
30 | Nc1c(Cl)cc(Cl)cc1C(=O)O [3,5-DICHLOROANTHRANILIC ACID] | 8.32
31 | CC(C)CCOC(=O)c1ccccc1 [BENZOIC ACID 1-(3-METHYL)BUTYL ESTER] | 8.75
32 | CC(C)OC(=O)c1ccccc1 [BENZOIC ACID 1-METHYLETHYL ESTER] | 8.22
33 | CCOC(=O)c1ccc(N)cc1 [BENZOCAINE] | 8.02
34 | CCOC(=O)c1ccccc1O [ETHYL SALICYLATE] | 7.191
35 | CC(C)COC(=O)c1ccccc1O | 7.35
36 | CCOC(=O)c1ccccc1 [ETHYL BENZOATE] | 7.65
37 | O=C(Cl)c1ccc([N+](=O)[O-])cc1 [4-NITROBENZOYL CHLORIDE] | 8.63
38 | CCOC(=O)c1ccc(OC)cc1 [4-METHOXYBENZOIC ACID ETHYL ESTER] | 7.62
39 | COc1cccc(OC)c1C(=O)O [2,6-DIMETHOXYBENZOIC ACID] | 6.21
40 | O=C(O)Cc1ccccc1C(=O)O [2-CARBOXYBENZENEACETIC ACID] | 6.21
41 | CCCOC(=O)c1cc(O)c(O)c(O)c1 [PROPYL GALLATE] | 7.65
42 | O=C(O)c1ccccc1 [BENZOIC ACID] | 7.44
43 | O=C(OCC1CO1)c1ccccc1 (centres undefined) [BENZOIC ACID 2,3-EPOXYPROPYL ESTER] | 7.25
44 | O=C(O)c1c(Cl)ccc(Cl)c1Cl [2,3,6-TRICHLOROBENZOIC ACID] | 6.48
45 | Nc1ccc(C(=O)O)cc1 [AMINOBENZOIC ACID] | 8.7
46 | CCCCOC(=O)c1ccccc1N [BUTYL 2-AMINOBENZOATE] | 8.52
47 | CC(C)COC(=O)c1ccccc1 [BENZOIC ACID 2-METHYLPROPYL ESTER] | 8.63
48 | O=C(O)c1ccccc1/N=C/c1ccccc1 [N-BENZYLIDENEANTHRANILIC ACID] | 6.21
49 | O=C(O)c1ccc([N+](=O)[O-])cc1 [4-NITROBENZOIC ACID] | 7.58
50 | COC(=O)c1ccccc1OC [METHYL 2-METHOXYBENZOATE] | 8.241
51 | O=C(Oc1cccc(O)c1)c1ccccc1 [BENZOIC ACID 3-HYDROXYPHENYL ESTER] | 6.68
52 | CCCCCCOC(=O)c1ccccc1 [BENZOIC ACID HEXYL ESTER] | 9.42
53 | Cc1cccc(C(=O)O)c1O [HYDROXYTOLUIC ACID] | 6.1
54 | O=C(O)c1cc(S(=O)(=O)O)ccc1O [SULFOSALICYLIC] | 7.52
